Results as given in patent US8138309B2, “Modified rubisco large subunit n-methyltransferase useful for targeting molecules to the active-site vicinity of ribulose-1,5-bisphosphate” (University of Kentucky Research Foundation, priority 2008, dated 2012).

Target: T1, spinach Rubisco (Spinacia oleracea, UniProt P00875)
T1 construct: Spinach and pea Rubisco, and pea Rubisco LSMT were purified according to McCurry; from tissue
Test: Rubisco carboxylase assay (14CO2 fixation, O2-free, CO2-free buffers), spinach Rubisco
Format: biochemical
Details: added to the Rubisco complex containing bound CA before the assay; AdoMet 100 μM
Experimental: Kinetic analyses were performed as described previously for Rubisco Lorimer, G. H., Badger, M. R., and Andrews, T. J. Biochemistry 15, 529-536.1976. Pierce, J. W., McCurry, S. D., Mulligan, R. M., and Tolbert, N. E. Methods Enzymol. 89 Pt D, 47-55.1982. Assays were conducted under O2 free conditions with CO2-free buffers as described below, and contained normalized Rubisco and hCAII activities, unless otherwise indicated. The assays contained, unless otherwise indicated, 100 mM Bicine adjusted to pH 8.2 with a saturated NaOH solution, 20 mM MgCl2, 2 mM dithiothreitol, 0.5 mM RuBP, and NaH^14 CO3 (1.0 mCi/mmol). Reactions were initiated by the addition of activated Rubisco, or conjugate, injected into an 8 mL serum capped vial (first flushed with nitrogen). Activation of Rubisco or conjugate was performed at 2 mg/mL by incubation at 30 C for 15 min in 50 mM Bicine, pH 8.2, containing 20 mM MgCl2 and 15 mM NaH^14CO3. Assay times, enzyme masses, volumes, or specific activities were adjusted to limit substrate consumption to 10% or less. The assays were terminated by the addition by 2N HCl (0.4 volumes), and the liquid evaporated to dryness under a stream of air at 50° C. Radioactivity was determined with a liquid scintillation analyzer (Packard 2000 CA), after addition of 0.5 mL H20 and 4.5 mL of cocktail (Bio-Safe II, RPI). […]

C[S+](CC[C@H](N)C(=O)[O-])C[C@H]1O[C@@H](n2cnc3c(N)ncnc32)[C@H](O)[C@@H]1O (stereo partly shown) [AdoMet, S-adenosylmethionine]
effect on the stimulation of carboxylase activity by bound CA: the effect of bound CA was abolished
